Several values for one entry are separate records, joined by “and”; a condition that tells them apart may be missing. Equal values may be shown once. Entries after “also recorded” stand apart in the source; their conditions may differ. Read-outs that look alike come from different tables or passages of the source.

The values below come from patent US12358941B2, “Lipidic analogs of anti-cancer stem cell agent” (VIRGINIA COMMONWEALTH UNIVERSITY, priority 2019, dated 2025).

In one series the test system is RKO colon spheroids. Put plainly: Primary spheroids inhibition assay, RKO. The note with it: FIG. 6. In kind it is cell-based. How it is done: The inhibitory potential of lipid-modified compounds of Formula I against CSCs was tested using a primary spheroids inhibition assay in various cancer cell lines including HT-29, RKO, HCT-116, LS1034, HC-15, WiDr, SW480, COLO205, NCI-H508, SW1116, LS174T, KM12 etc. Cells were grown both under monolayer and spheroid conditions as described in earlier work [Patel, N. J., et al. ACS Chem. Biol. 2014, 9, 1826-1833]. […] On day five, numbers of spheres ranging from 50 to 150 micrometers in diameter were counted using phase contrast microscope and percent inhibition was calculated compared to control. […] At the end of the incubation, 10 μL of 5 mg mL^−1 MTT solution ((3-(4,5-dimethylthiazol-2-yl)-2,5-diphenyltetrazolium bromide, Sigma) made in phosphate buffered saline (PBS) (Gibco) was added to each well and incubated for minimum of 2 to 3 h until crystals formation was observed. Following this, 150 μL of 4 mM HCl (Sigma) in isopropanol solution was added dropwise to each well and the mixture was triturated until the crystals dissolve completely. Finally, the plate was placed on the spectrophotometer reader and read at 590 nm and growth inhibition was calculated as percent of control.

The conditions of series [1]: background statement; cited from earlier work.
Another series relates to HT-29 spheroids (CSCs). Briefly: Primary spheroids inhibition assay, HT-29. In kind it is cell-based. How it is done:
(§1) The inhibitory potential of lipid-modified compounds of Formula I against CSCs was tested using a primary spheroids inhibition assay in various cancer cell lines including HT-29, RKO, HCT-116, LS1034, HC-15, WiDr, SW480, COLO205, NCI-H508, SW1116, LS174T, KM12 etc. Cells were grown both under monolayer and spheroid conditions as described in earlier work [Patel, N. J., et al. ACS Chem. Biol. 2014, 9, 1826-1833]. For primary sphere assay, cells were plated in non-treated, low adhesion, 96 wells plate at the concentration of 100 cells/100 μL/well in stem cell media (SCM) that consisted of DMEM:F12:AA, supplemented with 1×B27, 20 ng/mL epidermal growth factor, and 10 ng/mL fibroblast growth factor. After 4 h of incubation, vehicle (control) or G2.2 and its lipid analogs at the desired concentrations were added to each well (at least in triplicates for each sample). On day five, numbers of spheres ranging from 50 to 150 micrometers in diameter were counted using phase contrast microscope and percent inhibition was calculated compared to control. For monolayer assay, approximately 2.5×10^3 cells/100 μL/well were plated in 96-well tissue culture treated plate. After overnight incubation at 37° C. vehicle (control) or G2.2 was added at the desired concentration and the cells were further incubated for 60-72 h. At the end of the incubation, 10 μL of 5 mg mL^−1 MTT solution ((3-(4,5-dimethylthiazol-2-yl)-2,5-diphenyltetrazolium bromide, Sigma) made in phosphate buffered saline (PBS) (Gibco) was added to each well and incubated for minimum of 2 to 3 h until crystals formation was observed. Following this, 150 μL of 4 mM HCl (Sigma) in isopropanol solution was added dropwise to each well and the mixture was triturated until the crystals dissolve completely. Finally, the plate was placed on the spectrophotometer reader and read at 590 nm and growth inhibition was calculated as percent of control.

Another series deals with HT-29 cells (monolayer). Briefly: Monolayer MTT growth assay, HT-29. Format: cell-based. The conditions noted are these: HT-29 monolayer growth. How it is done: as §1
For orientation: Formazan colour is commonly taken as a measure of viable cells.

Series [2] deals with activated partial thromboplastin time (APTT), human plasma. Briefly: APTT clotting assay in human plasma. Format: biochemical. The note with it: for Safety Index: APTT doubling concentration vs HT-29 CSC IC50; for Concentration required to double APTT: citrated human plasma. How it is done:
Glycosaminoglycans, especially heparin/HS, are known for their ability to inhibit the coagulation system. Because G2.2 and its lipid analogs are mimetics of GAGs, it is important to study their effects on the coagulation system. We measured the concentration of lipid-modified G2.2 analogs required to double the activated partial thromboplastin time (APTT; Table 4). The experiments were performed as described in earlier work [Henry, B. L., et al. Blood Coag Fibrinol 2009, 20, 27-34]. Briefly, a standard one-stage recalcification assay in a BBL Fibrosystem fibrometer (Becton-Dickinson, Sparles, MD) was used to measure clotting times in human plasma. A 10 μL aqueous solution of the lipidic analog at a desired concentration was mixed with 90 μL of citrated human plasma and 100 μL of prewarmed APTT reagent. After incubation for 4 min at 37° C., clotting was initiated by adding 100 μL of prewarmed 25 mM CaCl2), and the time to clot was noted. The concentration of the analog required to double the clotting time was calculated from the clotting time versus concentration profile. In general, cholesterol modification of G2.2 increased its anticoagulation potency.

Series [3] can be described thus: Pharmacokinetics in rats, plasma concentration by fluorimetry. In kind it is in vivo, Sprague-Dawley rats. How it is done:
The animal protocol was approved by the Institutional Animal Care and Use Committee at VCU. Adult male Sprague-Dawley rats weighing 250-275 g were acclimatized for over 3 days with free access to standard rat diet and tap water. Animals were then placed on overnight fasting (i.e., without diet, but with free access to water) on a day before the PK studies. Each animal was anesthetized with an IP injection of urethane and an aliquot (0.1 mL) of blood was withdrawn as a prior-to-dosing or time 0 sample from the jugular vein with a use of 0.11 M sodium citrate (0.01 mL) as anti-coagulant. Rats (n=4 or 5) received G2.2 or IIb via IV injection or PO administration, while one animal received G2.2 via IP bolus injection. G2.2 and IIb were dissolved in sterile saline (0.1 mL IV and IP; 0.2 mLs PO). A series of blood aliquots (0.1 mL) were sampled from the jugular vein at different time points over 0 to 8 h. The blood samples were immediately centrifuged at 11,750 g for 3 min to yield the plasma samples, which were then stored at −70° C. At the conclusion of PK studies, all rats were euthanized by exsanguination under the surgical anesthesia.
The concentrations of G2.2 and lipid analogs in plasma were determined by the quantitative fluorimetry assay in which plasma samples were first diluted 2-fold (v/v) with 0.05 M PBS (pH 7.4), then an equal volume of methanol added and the mixture centrifuged at 11,750 g for 5 min. The supernatants were transferred to black 96 well-plates and the fluorescence at 528 nm (G2.2) or 460 nm (lipid analog) (λEX=340 nm) read using a microplate reader. Reference profiles, prepared for concentrations in the range of 0.5 and 50 μg/mL (R^2=0.98-0.99), were used to calculate plasma concentration at every time point.
The PK profile was analyzed using conventional analysis. The parameters deduced included peak plasma concentration (Cmax), the time required to reach Cmax (Tmax), the plasma concentration-time curve (AUC0-∞), the terminal half-life (t1/2), the apparent clearance (CL/F) and the apparent pseudo-steady state volume of distribution (Vpss/F). The absolute bioavailability (F) was deduced for G2.2, while relative bioavailability was deduced for lipid analogs.

Series [4] deals with xenografts-derived cells (HT-29), 3° spheroids. Briefly: Ex vivo tertiary spheroid formation of xenograft-derived cells. The note with it: cells from treated xenografts, a week after last dose. Format: cell-based. An excerpt: We also utilized our earlier observation that CSCs/progenitors are enhanced several-fold in spheroid culture and assessed the xenografts-derived cells for retention of tertiary spheroid growth inhibition profiles to distinguish between non self-renewing progenitors and self-renewing CSCs ex vivo.

Series [5] has as its system cancerous tissue-derived primary human spheroids. Briefly: Patient-derived spheroid growth, cancerous colon tissue. In kind it is cell-based. The conditions noted are these: 5 μM.
Series [6] has as its system normal colon tissue spheroids. Briefly: Patient-derived spheroid growth, normal colon tissue. Format: cell-based, human. The note with it: 5 μM.
In series [7] the test system is CSC-induced HT-29 xenografts. Put plainly: CSC-induced HT-29 xenograft model. Format: in vivo.
Description: Briefly, the protocols were approved by the Animal Component of Research Protocol Committee at McGuire VA Medical Center, Richmond, VA Xenografts were generated by injecting 10^5 CD133 hi/CXCR4hi (Dual hi) fluorescence-activated cell sorter (FACS) isolated HT29 cells suspended in 50% reduced growth factor Matrigel (BD Bioscience; in 50 μL sterile PBS) into the right flank of 6-week-old, female NCr nude mice (Taconic Farms) subcutaneously.
Once the tumors reached 50 mm^3, mice were randomized to either of the three groups (vehicle, 200 mg/kg G2.2, or 100 mg/kg IIb) and dosed i.p three times a week for three weeks. Tumor measurements on each animal were made 3 times a week with Vernier calipers, and tumor volume was calculated using the formula: V=W^2 (L)/2, where V is the volume in mm^3, and W and L are the width and length in mm. […] The remainder of animals were monitored till they reached predefined humane end-points. Animals were sacrificed per Institutional Animal Care and Use Committee—approved methods of euthanasia.
Where [8] appears, read: HT-29 CSCs, Table 4, read-out: IC50 (HT-29 CSCs).
Setting [9] is: HT-29 spheroid growth, read-out: Spheroid IC50.

Consider `O=c1c(OS(=O)(=O)O)c(-c2ccc(OS(=O)(=O)O)c(OS(=O)(=O)O)c2)oc2cc(OS(=O)(=O)O)cc(OCCCOc3cc(OS(=O)(=O)O)cc4oc(-c5ccc(OS(=O)(=O)O)c(OS(=O)(=O)O)c5)c(OS(=O)(=O)O)c(=O)c34)c12` [Compound G2.2], for which the “inhibition of RKO colon spheroids” value in the series on RKO colon spheroids is reported as “dose-dependent inhibition”. Also, in [1], the half-life (commonly how long it takes for the measured level to halve) is 4 h and the oral bioavailability is on record as less than 1%. The IC50 (as a rule, the midpoint of a concentration-inhibition curve) in the series with HT-29 spheroids (CSCs) (setting [8]) is 29 ± 1 µM. Also, the concentration for half-maximal inhibition (IC50) in the series on HT-29 spheroids (CSCs) (setting [9]) came to 29 ± 1 µM. The compound also yielded an IC50 in the series with HT-29 cells (monolayer) greater than 500 µM. Moreover, in [2], the “Safety Index” value is given as 22-fold and the “Concentration required to double APTT” value is 640 µM. Also, in [3] (G2.2 IV bolus 50 mg/kg, rats), the distribution phase entry is “about 1.5 hours”. In addition, in [3] (IP 200 mg/kg, rat), the “AUC0-∞ (area under the plasma concentration v/s time curve)” value was determined as 6398 µg·h/mL; the Cmax (as a rule, the peak of the concentration-time curve) is 925 µM; the “Cmax (maximum plasma concentration)” value is roughly 1350 µg/mL; the “t1/2 (terminal half-life)” value came out at 3 h. The “F (absolute bioavailability)” value in [3] (IP 200 mg/kg, rat, 200 mg/kg) worked out at 30%. In series [3] (IV bolus 50 mg/kg, rats), the terminal half-life worked out at 4.4 h. Also, in series [3] (PO 200 mg/kg, rats), the “AUC0-∞ (area under the plasma concentration v/s time curve)” value is 584 µg·h/mL, the Cmax was 55.6 µM and the “t1/2 (terminal half-life)” value was 4.6 h. Further, in series [3] (PO 200 mg/kg, rats, 200 mg/kg), the “Cmax (maximum plasma concentration)” value was 81.2 µg/mL and 81 µg/mL; the “F (absolute bioavailability)” value is 3%.
In the case of `CC(C)CCCC(C)C1CCC2C3CC=C4CC(OCCCCCOc5cc(-c6oc7cc(OS(=O)(=O)[O-])cc(OCCCOc8cc(OS(=O)(=O)[O-])cc9oc(-c%10ccc(OS(=O)(=O)[O-])c(OS(=O)(=O)[O-])c%10)c(OS(=O)(=O)[O-])c(=O)c89)c7c(=O)c6OS(=O)(=O)[O-])ccc5OS(=O)(=O)[O-])CCC4(C)C3CCC12C.[Na+].[Na+].[Na+].[Na+].[Na+].[Na+].[Na+]` (centres unmarked) [IIb], the “decrease in 3° spheroid formation vs vehicle controls” value in series [4] is 2.6 fold. In addition, the “inhibition of RKO colon spheroids” value in the series on RKO colon spheroids is on record as “dose-dependent inhibition”. The IC50 is 8.2 ± 1.5 µM in the series on HT-29 spheroids (CSCs) (setting [8]), 8.2 ± 1.5 µM in the series with HT-29 spheroids (CSCs) (setting [9]) and greater than 500 µM in the series on HT-29 cells (monolayer). Moreover, the “inhibition of spheroid growth formation, cancerous tissue” value in series [5] is reported as “significantly inhibited”. Further, in [6], the “effect on spheroid growth formation, normal tissue” value is reported as “without any effect”. Also, the “Safety Index” value in series [2] was 6-fold. Further, the “Concentration required to double APTT” value in series [2] stood at 48 µM. The “peaks in the plasma concentration vs. time profile” value in series [3] (PO nominal 50 mg/kg, rats, 0-8 h) is “At least 2”. Besides, in [7] (100 mg/kg i.p., 3 times a week x 3 weeks, end of treatment), the “decrease in tumor volume compared with vehicle controls” value was greater than 80%. The “gross toxicity (animal body weight)” value in series [7] (100 mg/kg i.p., nude mice) was “did not show any gross toxic effects; also recorded: no gross toxicity”. Further, the “CSC markers (DCLK1, LGR5) and self-renewal factor (BMI-1), western blot of xenografts” value in [7] (100 mg/kg i.p., vs vehicle) is “robust reduction; also recorded: reduction in CSC markers”. Also, in series [7] (100 mg/kg, i.p.), the “tumor volume compared to vehicle treated mice” value is recorded as “significant reduction in tumor volume”. For the same compound, in [7] (IIb 100 mg/kg i.p.), the “effect on tumor volume compared to G2.2 (200 mg/kg)” value is greater than 2 fold. Also, in series [7] (IIb treated mice), the “CSC markers, flow cytometry analysis of mice xenografts” value is on record as “reduction in CSC markers”. In addition, the “in vivo potency relative to G2.2” value in series [7] (overall in vivo studies) is recorded as roughly 4 fold.
In the case of `CC(C)CCCC(C)C1CCC2C3CC=C4CC(OCCCCCCCCOc5cc(-c6oc7cc(OS(=O)(=O)[O-])cc(OCCCOc8cc(OS(=O)(=O)[O-])cc9oc(-c%10ccc(OS(=O)(=O)[O-])c(OS(=O)(=O)[O-])c%10)c(OS(=O)(=O)[O-])c(=O)c89)c7c(=O)c6OS(=O)(=O)[O-])ccc5OS(=O)(=O)[O-])CCC4(C)C3CCC12C.[Na+].[Na+].[Na+].[Na+].[Na+].[Na+].[Na+]` (centres unmarked) [IIc], in the series with HT-29 spheroids (CSCs) (setting [8]), the IC50 was 0.8 ± 0.2 µM. Further, the IC50 in the series on HT-29 spheroids (CSCs) (setting [9]) came to 0.8 ± 0.2 µM. For the same compound, the “Monolayer IC50” value with HT-29 cells (monolayer) is listed as 1079 ± 15%. For the same compound, in [2], the “Safety Index” value was 63-fold and the “Concentration required to double APTT” value came out at 50 µM. Moreover, the “absorption compared with G2.2” value in [3] (PO, rats) is “far greater than that for G2.2”.
Consider Enoxaparin [reference compound], for which the “Concentration required to double APTT” value in [2] amounted to 2.5 µM.
